Patent US11058680B2, “Combinations of opioid/TLR4 antagonists and acetaminophen for use in the treatment of emotional pain and insomnia” (Allodynic Threapeutics, LLC, priority 2016, dated 2021)
Several values for one entry are separate records, joined by “and”; a condition that tells them apart may be missing. Equal entries are not always repeated.

Tested on: migraine attacks
Experiment: Naltrexone/acetaminophen open-label pilot study, acute treatment of migraine: headache pain (4-point scale; relief score ≤1, pain-free score = 0), associated symptoms, additional meds
Assay type: in vivo, human
Method: Sixteen unique patients were enrolled in an open phase pilot study for the acute treatment of migraine attacks, insomnia, and emotional pain. Of the sixteen patients, eleven were evaluated for one migraine attack, one for two attacks, two for four attacks, one for six attacks, and one for fourteen attacks. A total of forty-one […] treatments were evaluated. Patients received a single dose of one of the following treatment options:
The majority of the patients remained in the clinic for observation for 2 hours after dosing. They completed headache diary assessments immediately before and after dosing at time points: 7, 15, and 30 minutes; and 1, 1.5, 2, 3, 6, 12, 24, and 48 hours. Headache pain was assessed on a 4-point scale (0=none; 1=mild; 2=moderate; 3=severe). The assessment of photophobia, phonophobia, nausea, and neck/shoulder pain was assessed as present or absent. The assessment of emotional pain was recorded on a 4-point scale (0=none, 1=mild, 2=moderate, 3=severe). The assessment of difficulty sleeping or falling asleep (insomnia) was assessed on a 4-point scale (0=none, 1=mild, 2=moderate, 3=severe) at baseline, for the night before treatment and for the following nights at 24, and 48 hours. Patients recorded side effects severity at each time point. Patients recorded the time of the first rescue medication dose and all additional headache medications used within 48 hours. Patients were required to stay awake to record their assessments in the first 2 hours, sleeping was permitted thereafter. While asleep, assessments were completed according to patients' best estimation. For data analysis, it was assumed that a migraine attack is a unique patient. Patients were asked to specify (yes or no answer) to whether they experienced emotional pain symptoms such as: hurt feelings, sadness, fear, or anger. Patients who replied positively to having emotional pain were asked to specify the cause into one of the following options: relationship, work/school, money/debt, health, or loss/grief.

[1] = 3 h, NTX/APAP 3.25 mg/325 mg, NTX 3.25 mg
[2] = 3 h, NTX/APAP 5 mg/325 mg, NTX 5 mg
[3] = 3 h, NTX/APAP […]325 mg, NTX 1.5 mg
[4] = 3 h, naltrexone/acetaminophen 2.25 mg/325 mg (N=21), naltrexone 2.25 mg (N=9)
[5] = 4 h, NTX/APAP 2.25 mg/325 mg, NTX 2.25 mg
[6] = 4 h, NTX/APAP 3.25 mg/325 mg, NTX 3.25 mg
[7] = 4 h, NTX/APAP 5 mg/325 mg, NTX 5 mg
[8] = 4 h, NTX/APAP […]325 mg, NTX 1.5 mg
[9] = 4 h, naltrexone/acetaminophen 2.25 mg/325 mg (N=21), naltrexone 2.25 mg (N=9)
[10] = 6 h, NTX/APAP 2.25 mg/325 mg, NTX 2.25 mg
[11] = 6 h, NTX/APAP 3.25 mg/325 mg, NTX 3.25 mg
[12] = 6 h, NTX/APAP 5 mg/325 mg, NTX 5 mg
[13] = 6 h, NTX/APAP […]325 mg, NTX 1.5 mg
[14] = 6 h, naltrexone/acetaminophen 2.25 mg/325 mg (N=21), naltrexone 2.25 mg (N=9)
[15] = 12 h, NTX/APAP 2.25 mg/325 mg, NTX 2.25 mg

**Q.** What does the source list for `O=C1CC[C@@]2(O)[C@H]3Cc4ccc(O)c5c4[C@@]2(CCN3CC2CC2)[C@H]1O5` [naltrexone]?
**A.** Photophobia-free (3 h, NTX/APAP 2.25 mg/325 mg, NTX 2.25 mg): 8 (88) n (%); Additional meds taken [1]: 0; Headache pain-free [1]: 3 (100) n (%); Headache pain-relief [1]: 3 (100) n (%); Most bothersome symptom free [1]: 3 (100) n (%); Nausea-free [1]: 3 (100) n (%); Neck/shoulder pain-free [1]: 3 (100) n (%); Phonophobia-free [1]: 3 (100) n (%); Photophobia-free [1]: 3 (100) n (%); Additional meds taken [2]: 0; Headache pain-free [2]: 1 (100) n (%); Headache pain-relief [2]: 1 (100) n (%); Most bothersome symptom free [2]: 1 (100) n (%); Nausea-free [2]: 1 (100) n (%); Neck/shoulder pain-free [2]: 1 (100) n (%); Phonophobia-free [2]: 1 (100) n (%); Photophobia-free [2]: 1 (100) n (%); Additional meds taken [3]: 0; Headache pain-free [3]: 3 (100) n (%); Headache pain-relief [3]: 3 (100) n (%); Most bothersome symptom free [3]: 3 (100) n (%); Nausea-free [3]: 3 (100) n (%); Neck/shoulder pain-free [3]: 3 (100) n (%); Phonophobia-free [3]: 3 (100) n (%); Photophobia-free [3]: 3 (100) n (%); Additional meds taken (3 h, combined doses): 0; Headache pain-free (3 h, combined doses): 14 (88) n (%); Headache pain-relief (3 h, combined doses): 16 (100) n (%); Most bothersome symptom free (3 h, combined doses): 16 (100) n (%); Nausea-free (3 h, combined doses): 16 (100) n (%); Neck/shoulder pain-free (3 h, combined doses): 16 (100) n (%); Phonophobia-free (3 h, combined doses): 16 (100) n (%); Photophobia-free (3 h, combined doses): 15 (94) n (%); Headache pain-free (3 h, naltrexone 1.5 mg (N=3)): 100%; Headache pain-free [4]: 77% and 100%; Headache pain-relief [4]: 100%; Most bothersome symptom-free [4]: 100%; Headache pain-free (3 h, naltrexone/acetaminophen 3.25 mg/325 mg (N=3), naltrexone 3.25 mg (N=3)): 100%; Additional meds taken [5]: 0 (0); Headache pain-free [5]: 6 (66) n (%); Headache pain-relief [5]: 8 (88) n (%); Most bothersome symptom-free [5]: 8 (88) n (%); Nausea-free [5]: 8 (88) n (%); Neck/shoulder pain-free [5]: 9 (100) n (%); Phonophobia-free [5]: 8 (88) n (%); Photophobia-free [5]: 7 (77) n (%); Additional meds taken [6]: 0; Headache pain-free [6]: 3 (100) n (%); Headache pain-relief [6]: 3 (100) n (%); Most bothersome symptom-free [6]: 3 (100) n (%); Nausea-free [6]: 3 (100) n (%); Neck/shoulder pain-free [6]: 3 (100) n (%); Phonophobia-free [6]: 3 (100) n (%); Photophobia-free [6]: 3 (100) n (%); Additional meds taken [7]: 0; Headache pain-free [7]: 1 (100) n (%); Headache pain-relief [7]: 1 (100) n (%); Most bothersome symptom-free [7]: 1 (100) n (%); Nausea-free [7]: 1 (100) n (%); Neck/shoulder pain-free [7]: 1 (100) n (%); Phonophobia-free [7]: 1 (100) n (%); Photophobia-free [7]: 1 (100) n (%); Additional meds taken [8]: 0; Headache pain-free [8]: 3 (100) n (%); Headache pain-relief [8]: 3 (100) n (%); Most bothersome symptom-free [8]: 3 (100) n (%); Nausea-free [8]: 3 (100) n (%); Neck/shoulder pain-free [8]: 3 (100) n (%); Phonophobia-free [8]: 3 (100) n (%); Photophobia-free [8]: 3 (100) n (%); Additional meds taken (4 h, combined doses): 0; Headache pain-free (4 h, combined doses): 13 (81) n (%); Headache pain-relief (4 h, combined doses): 15 (94) n (%); Most bothersome symptom-free (4 h, combined doses): 15 (94) n (%); Nausea-free (4 h, combined doses): 15 (94) n (%); Neck/shoulder pain-free (4 h, combined doses): 16 (100) n (%); Phonophobia-free (4 h, combined doses): 15 (94) n (%); Photophobia-free (4 h, combined doses): 14 (88) n (%); Headache pain-free (4 h, naltrexone 1.5 mg (N=3)): 100%; Headache pain-free [9]: 66% and 100%; Headache pain-relief [9]: 88%; Most bothersome symptom-free [9]: 88%; Headache pain-free (4 h, naltrexone/acetaminophen 3.25 mg/325 mg (N=3), naltrexone 3.25 mg (N=3)): 100%; Additional meds taken [10]: 0 (0); Headache pain-free [10]: 7 (77) n (%); Headache pain-relief [10]: 9 (100) n (%); Most bothersome symptom-free [10]: 9 (100) n (%); Nausea-free [10]: 9 (100) n (%); Neck/shoulder pain-free [10]: 9 (100) n (%); Phonophobia-free [10]: 9 (100) n (%); Photophobia-free [10]: 8 (88) n (%); Additional meds taken [11]: 0; Headache pain-free [11]: 3 (100) n (%); Headache pain-relief [11]: 3 (100) n (%); Most bothersome symptom-free [11]: 3 (100) n (%); Nausea-free [11]: 3 (100) n (%); Neck/shoulder pain-free [11]: 3 (100) n (%); Phonophobia-free [11]: 3 (100) n (%); Photophobia-free [11]: 3 (100) n (%); Additional meds taken [12]: 0; Headache pain-free [12]: 1 (100) n (%); Headache pain-relief [12]: 1 (100) n (%); Most bothersome symptom-free [12]: 1 (100) n (%); Nausea-free [12]: 1 (100) n (%); Neck/shoulder pain-free [12]: 1 (100) n (%); Phonophobia-free [12]: 1 (100) n (%); Photophobia-free [12]: 1 (100) n (%); Additional meds taken [13]: 0; Headache pain-free [13]: 3 (100) n (%); Headache pain-relief [13]: 3 (100) n (%); Most bothersome symptom-free [13]: 3 (100) n (%); Nausea-free [13]: 3 (100) n (%); Neck/shoulder pain-free [13]: 3 (100) n (%); Phonophobia-free [13]: 3 (100) n (%); Photophobia-free [13]: 3 (100) n (%); Additional meds taken (6 h, combined doses): 0; Headache pain-free (6 h, combined doses): 14 (88) n (%); Headache pain-relief (6 h, combined doses): 16 (100) n (%); Most bothersome symptom-free (6 h, combined doses): 16 (100) n (%); Nausea-free (6 h, combined doses): 16 (100) n (%); Neck/shoulder pain-free (6 h, combined doses): 16 (100) n (%); Phonophobia-free (6 h, combined doses): 16 (100) n (%); Photophobia-free (6 h, combined doses): 15 (94) n (%); Headache pain-free (6 h, naltrexone 1.5 mg (N=3)): 100%; Headache pain-free [14]: 77% and 100%; Headache pain-relief [14]: 100%; Most bothersome symptom-free [14]: 100%; Headache pain-free (6 h, naltrexone/acetaminophen 3.25 mg/325 mg (N=3), naltrexone 3.25 mg (N=3)): 100%; Additional meds taken [15]: 0 (0); Headache pain-free [15]: 7 (77) n (%); Headache pain-relief [15]: 9 (100) n (%); Most bothersome symptom-free [15]: 9 (100) n (%)
